Here are results for 1 compound from patent US20250090541A1, “Methods for Treating Neurodegenerative Disorders” (Praetego Inc, priority 2022, published 2025).

Format in all cases: in vivo
The test system of one data set is PSD95. The experiment in a line: Western blot of hippocampus, human tau mice: PSD95. The following applies: 1 and 5 mg/kg, tendency. The procedure:
(§1) Female and male human tau mice (Jax #005491) were treated daily for 25 weeks with PTG-630 trihydrochloride at 1 and 5 mg/kg in drinking water starting at 10 weeks of age (before cognitive deficits appear).
Mouse Hippocampus were processed for Western blotting analysis of (A) Drebrin (actin binding protein in dendritic spines, role in neuronal growth, a decrease=contributing factor in the pathogenesis of memory disturbance), (B) PSD95 (a post-synaptic protein, role in the regulation of excitatory synapse maturity), and (C) NeuN (neuronal nuclear antigen, biomarker for neurons, decrease=neuronal loss) (FIG. 3).
For orientation: A western blot detects proteins with antibodies after separation by electrophoresis.

In the next data set the test system is human tau mice. The experiment in a line: Tactile allodynia (manual von Frey filaments), human tau mice. The following applies: 5 mg/kg, after 14 weeks of treatment. Here is the method:
as §1
Tactile and thermal responses, measures of associated damage to the peripheral nervous system (PNS), were assessed at 8, 14, 18 and 24 weeks. hTau mice developed significant tactile allodynia measured with manual von Frey filaments at the 14 weeks time point (FIG. 4).

Another data set deals with 4-hydroxynonal (4-HNE). In words: Lipid peroxidation, 4-HNE Oxiselect ELISA in hippocampus homogenates, htau mice. Here is the method:
as §1
Lipid peroxidation was assessed using the 4-hydroxynonal (4-HNE) Oxiselect ELISA in hippocampus homogenates. […] It is believed that damage to neuronal tissue occurs to a significant extent via induction of oxidative stress that leads to lipoxidation, so that amelioration by PTG-630 reflects their efficacy via anti-oxidant mechanisms.
For orientation: An ELISA detects its analyte on a solid surface through an enzyme-linked reagent.

The subject of data set [1] is carboxymethyl Lysine (CML). In words: Carboxymethyl lysine (CML) by LC-MS/MS in terminal plasma and brain cortex, htau mice. Here is the method: as §1
Terminal plasma and brain cortex were also analyzed for carboxymethyl Lysine (CML), a prominent advanced glycation end-product (AGE), by an LC-MS/MS quantitative chemical analysis method. PTG-630 and PTG-670 were developed as potent AGE inhibitors and tested for amelioration of PNS and CNS damage due to the extensive work that implicated AGE formation as a causative factor in the development of neurodegenerative pathologies.

Data set [2] in a line: Mortality and apparent toxicity, 25 weeks in human tau mice. The following applies: 1 and 5 mg/kg in drinking water. Here is the method: as §1
• 1—Control (C57B16), N=7 male, N=7 female, Final N=6 male, N=6 female • 2—htau, N=7 male, N=7 female, Final N=7 male, N=6 female • 3—htau+PTG-630 1 mg/kg drinking water, N=7 male, N=7 female, Final N=7 male, N=7 female • 4—htau+PTG-630 5 mg/kg drinking water, N=7 male, N=7 female, Final N=6 male, N=7 female
One mouse in group 4 died at week 8 from tooth occlusion.

Structures are written as SMILES.

In the case of `Cc1ncc(CN2CCOCC2)c(-c2ncc[nH]2)c1O` [PTG-630, 4-(1H-imidazol-2-yl)-2-methyl-5-(morpholinomethyl)pyridin-3-ol], in the data set on PSD95, the “levels of PSD95 protein in hippocampus” value is “dose-dependly ameliorate”. Besides, in the data set on human tau mice, the tactile allodynia result is recorded as “significantly ameliorated”. Further, the “4-HNE levels in hippocampus” value in the data set on 4-hydroxynonal (4-HNE) (1 mg/kg) and in the data set on 4-hydroxynonal (4-HNE) (5 mg/kg) was “significantly (p<0.01) reduced HINE levels to control levels” in each case. Also, the “CML levels in cortex” value in data set [1] (female htau mice, 5 mg/kg) is given as “significantly (p<0.05) reduced”; in data set [1] (male), “No significant difference”. Also, the “CML levels in plasma” value in data set [1] (male and female) is “No significant difference”. Besides, the apparent toxicity entry in data set [2] is “No toxicity was apparent”.
